Data taken from patent US20050244916A1, “Methods for predicting protein activity based on identification of multidimensional signatures” (priority 2004, published 2005).
Entries after “also recorded” stand apart in the source; their conditions may differ.

Assays:
[1] = literature statement, organisms not given; cited from earlier work
[2] = tested on: Staphylococcus aureus (ATCC 27217), Bacillus subtilis (ATCC 6633), Escherichia coli (strain ML-35); test: solid-phase radial diffusion antimicrobial assay, bacteria; type: cell-based; settings: for antimicrobial activity compared with standard control defensin HNP-1: pH-specific, organism not specified (panel of bacteria and C. albicans); for antimicrobial activity against bacteria (zones of complete or partial inhibition): radial diffusion, pH 5.5 or pH 7.5, read after 24 h, S. aureus, B. subtilis, E. coli
Method: (§1) Standard radial diffusion assays were conducted using 10 μg of specified peptide: defensin HNP-1 (HNP); brazzein (BRZ); charybdotoxin (CTX); or metallothionein II (MTL). Recombinant brazzein reflecting the published 3-dimensional structure (1BRZ) as determined by nuclear magnetic resonance spectroscopy was kindly provided by Drs. J. L. Markley and F. M. Assadi-Porter, the University of Wisconsin 25. Charybdotoxin, metallothionein II, and defensin HNP-1 were obtained from commercial sources. Antimicrobial activity was assessed using a well-established solid-phase diffusion method as described by Tang et al., Infect. Immun. 70: 6524-6533 (2002). Assays included well characterized organisms: Staphylococcus aureus (ATCC 27217, Gram-positive coccus); Bacillus subtilis (ATCC 6633, Gram-positive bacillus); Escherichia coli (strain ML-35, Gram-negative bacillus); and Candida albicans (ATCC 36082, fungus). In brief, organisms were cultured to logarithmic phase and inoculated (106 colony forming units/ml) into buffered molecular-biology grade agarose at the indicated pH. Peptides resuspended in sterile deionized water were introduced into wells formed in the underlay, and incubated for 3 h at 37° C. Nutrient-containing overlay medium was then applied, and assays incubated at 37° C. or 30° C. for bacteria or fungi, respectively. After 24 h, zones of complete or partial inhibition were measured. All assays were repeated independently a minimum of two times at pH 5.5 (panels A-D) or pH 7.5 (panels E-H) to assess the influences of pH on peptide antimicrobial activities versus microorganisms. Histograms express mean (±standard deviation) zones of complete (blue) or incomplete (yellow) inhibition of growth. […] Note differences in scale.
(§2) These peptides were tested for antimicrobial activity against a panel of Gram-positive (Staphylococcus aureus, Bacillus subtilis) and Gram-negative (Escherichia coli) bacteria, and the fungus Candida albicans, using a well-established and sensitive in vitro assay [Antimicrobial activity was assessed using a well-established solid-phase diffusion method. Assays included well-characterized organisms: Staphylococcus aureus (ATCC 27217, Gram-positive); Bacillus subtilis (ATCC 6633, Gram-positive); Escherichia coli (strain ML-35, Gram-negative); and Candida albicans (ATCC 36082, fungus). In brief, organisms were cultured to logarithmic phase and inoculated at a density of 10^6 colony forming units/ml in buffered molecular grade agarose at the indicated pH. Five μg of peptide resuspended in sterile deionized water were introduced into wells formed in the underlay, and incubated for 3 h at 37° C. Nutrient-containing overlay medium was then applied, and assays incubated at 37° C. or 30° C. for bacteria or fungi, respectively. Defensin HNP-1 was tested in parallel as a standard control. After 24 h, zones of complete or partial inhibition were measured. All assays were repeated independently a minimum of two times. Tang et al., Infect. Immun. 70:6524 (2002) for detailed methodology.].

[3] = tested on: Candida albicans (ATCC 36082); test: solid-phase radial diffusion antimicrobial assay, fungus; type: cell-based; settings: pH 5.5 or pH 7.5, read after 24 h
Method: as §1
as §2, with “Nutrient-containing overlay medium was then applied, and assays incubated at 37° C. or 30° C. for bacteria or fungi, respectively. Defensin HNP-1 was tested in parallel as a standard control.” left out, “All assays were repeated independently a minimum of two times. Tang et al., Infect. Immun. 70:6524 (2002) for detailed methodology.].” left out

Row | Molecule | direct antimicrobial activity [1] | antimicrobial activity against bacteria (zones of complete or partial inhibition) [2] | antimicrobial activity against C. albicans (zones of complete or partial inhibition) [3] | further results
1 | IP-10/CXCL10: interferon-γ inducible protein-10 kDa | direct antimicrobial activity | – | – | –
2 | ITAC/CXCL11: interferon-inducible T cell α chemoattractant | direct antimicrobial activity | – | – | –
3 | MIG/CXCL9: monokine induced by interferon-γ | direct antimicrobial activity | – | – | –
4 | PF-4: chemokine, human platelet factor-4 | direct antimicrobial activity | – | – | –
5 | RANTES: β-chemokine, releasable upon activation normal T cell expressed/secreted | direct antimicrobial activity | – | – | –
6 | brazzein: sweetener protein from Pentadiplandra (J'Oblie berry); recombinant, structure 1BRZ (QDKCKKVYENYPVSKCQLANQCNYDCKLDKHARSGECFYDEKRNLQCICDYCEY; UniProt P56552 1-54, looked up) | – | direct antimicrobial activities; also recorded: previously unrecognized antimicrobial activity; also recorded: exerted direct antimicrobial activity | direct antimicrobial activities; also recorded: previously unrecognized antimicrobial activity; also recorded: exerted direct antimicrobial activity | antimicrobial activity compared with standard control defensin HNP-1 [2]: in some conditions exceeded that of HNP-1
7 | charybdotoxin | – | direct antimicrobial activities; also recorded: previously unrecognized antimicrobial activity; also recorded: exerted direct antimicrobial activity | direct antimicrobial activities; also recorded: previously unrecognized antimicrobial activity; also recorded: exerted direct antimicrobial activity | antimicrobial activity compared with standard control defensin HNP-1 [2]: in some conditions exceeded that of HNP-1
8 | metallothionein II: prototype metallothionein (Saccharomyces, 1AOO) lacking the γ-core motif; comparator predicted to lack antimicrobial activity (QNEGHECQCQCGSCKNNEQCQKSCSCPTGCNSDDKCPCGNKSEETKKSCCSGK; UniProt P0CX80 9-61, looked up) | – | devoid of antimicrobial activity; also recorded: failed to exert antimicrobial activity | devoid of antimicrobial activity; also recorded: failed to exert antimicrobial activity | antimicrobial activity against bacteria (zones of complete or partial inhibition) ([2]; listed as Metallothionein II): lacked antimicrobial activity; antimicrobial activity against C. albicans (zones of complete or partial inhibition) ([3]; listed as Metallothionein II): lacked antimicrobial activity
9 | PBP: chemokine, platelet basic peptide (protein, UniProt P02775 35-128, looked up, Platelet basic protein, chemokine, platelet basic peptide) Platelet basic protein: SSTKGQTKRNLAKGKEESLDSDLYAELRCMCIKTTSGIHPKNIQSLEVIGKGTHCNQVEVIATLKDGRKICLDPDAPRIKKIVQKKLAGDESAD | direct antimicrobial activity | – | – | –
